For this data set, the system named is rodent lifetime carcinogenesis bioassay, tumor incidence TD50. Description: carcinogenic potency in animals, long-term in vivo studies, CPDB compilation (AID 1745844).

Values joined by “and” are separate entries in the source; they are usually repeats but may differ in a detail not shown here. Equal entries are not always repeated. Active and inactive are the calls of the source. No rule for the calls is given here.

The term TD50 denotes the dose at which the toxic effect under study appears in half of the subjects. For `CC(C)O`, the carcinogen call reads like this: (mouse, strain Charles River CD1, females, inhaled, site: kidney, lesion: one or several types, types not named, dosed 54 weeks, study length 54 weeks) “negative (inactive)”; (mouse, strain Charles River CD1, females, inhaled, site: kidney, lesion: one or several types, types not named, dosed 78 weeks, study length 78 weeks) “negative (inactive)”; (mouse, strain Charles River CD1, males, inhaled, site: kidney, lesion: one or several types, types not named, dosed 54 weeks, study length 54 weeks) “negative (inactive)”; (mouse, strain Charles River CD1, males, inhaled, site: kidney, lesion: one or several types, types not named, dosed 78 weeks, study length 78 weeks) “negative (inactive)”; (rat, strain Fischer 344, females, inhaled, site: kidney, lesion: one or several types, types not named, dosed 72 weeks, study length 73 weeks) “negative (inactive)”; (rat, strain Fischer 344, females, inhaled, site: kidney, lesion: one or several types, types not named, dosed 104 weeks, study length 104 weeks) “negative (inactive)”. Moreover, the carcinogen call is “negative (inactive)” (rat, strain Fischer 344, males, inhaled, site: kidney, lesion: one or several types, types not named, dosed 72 weeks, study length 73 weeks) and “negative (inactive)” (rat, strain Fischer 344, males, inhaled, site: kidney, lesion: one or several types, types not named, dosed 102 weeks, study length 104 weeks). In addition, the TD50 (rat, strain Fischer 344, males, inhaled, site: testis, lesion: interstitial-cell adenoma, dosed 72 weeks, study length 73 weeks) was 456 mg/kg/day (inactive) and the TD50 (rat, strain Fischer 344, males, inhaled, site: testis, lesion: interstitial-cell adenoma, dosed 102 weeks, study length 104 weeks) is 46.4 mg/kg/day (inactive).
In the case of `CCN(CC)CCOc1ccc(C(=C(Cl)c2ccccc2)c2ccccc2)cc1`, the TD50 is 3.62 mg/kg/day (inactive) (mouse, strain C57L/He x 129/Rr x C3HeB/De x SWR/Ly, females, by gavage, site: any site (literature study), lesion: several types, types named in the paper, dosed 69 weeks, study length 69 weeks) and 5 mg/kg/day (inactive) (mouse, strain C57L/He x 129/Rr x C3HeB/De x SWR/Ly, females, by gavage, site: lung, lesion: one or several types, types not named, dosed 69 weeks, study length 69 weeks). Also, the carcinogen call (mouse, strain C57L/He x 129/Rr x C3HeB/De x SWR/Ly, females, by gavage, site: any site (literature study), lesion: several types, types named in the paper, dosed 69 weeks, study length 82 weeks) is “negative (inactive)”.
`Cc1cccc(Nc2cc(Cl)nc(SCC(=O)O)n2)c1C`: the carcinogen call is “negative (inactive)” (hamster, strain Syrian, MB strain, males, in feed, site: liver, lesion: several types, types named in the paper, dosed 60 weeks, study length 60 weeks); “positive” (mouse, strain CSb, males, in feed, site: liver, lesion: hepatocellular carcinoma, dosed 53 weeks, study length 63 weeks); “positive” (rat, strain F344/DuCrj, males, in feed, site: liver, lesion: several types, types named in the paper, dosed 78 weeks, study length 78 weeks); “positive” (rat, strain Fischer 344, males, in feed, site: liver, lesion: hepatocellular carcinoma, trabecular, dosed 69 weeks, study length 69 weeks); “positive” (rat, strain Fischer 344, males, in feed, site: liver, lesion: hepatocellular carcinoma, dosed 65 weeks, study length 65 weeks); “positive” (rat, strain Fischer 344, males, in feed, site: liver, lesion: several types, types named in the paper, dosed 52 weeks, study length 52 weeks). Besides, the carcinogen call (rat, strain Sprague-Dawley, males, in feed, site: liver, lesion: several types, types named in the paper, dosed 60 weeks, study length 60 weeks) was “positive”. Also, the TD50 reads like this: (rat, strain F344/DuCrj, males, in feed, site: liver, lesion: several types, types named in the paper, dosed 52 weeks, study length 52 weeks) 4.26 mg/kg/day; (rat, strain Fischer 344, males, in feed, site: liver, lesion: hepatocellular adenoma, dosed 37 weeks, study length 52 weeks) 95.1 mg/kg/day; (rat, strain Fischer 344, males, in feed, site: liver, lesion: hepatocellular adenoma, dosed 37 weeks, study length 104 weeks) 190 mg/kg/day; (rat, strain Fischer 344, males, in feed, site: liver, lesion: hepatocellular adenoma, dosed 52 weeks, study length 52 weeks) 2.29 mg/kg/day; (rat, strain Fischer 344, males, in feed, site: liver, lesion: hepatocellular adenoma, dosed 52 weeks, study length 104 weeks) 84.3 mg/kg/day; (rat, strain Fischer 344, males, in feed, site: liver, lesion: hepatocellular carcinoma, dosed 37 weeks, study length 104 weeks) 92.6 mg/kg/day. Also, the TD50 runs as follows: (rat, strain Fischer 344, males, in feed, site: liver, lesion: hepatocellular carcinoma, dosed 52 weeks, study length 52 weeks) 19.2 mg/kg/day; (rat, strain Fischer 344, males, in feed, site: liver, lesion: hepatocellular carcinoma, dosed 52 weeks, study length 104 weeks) 26.8 mg/kg/day; (rat, strain Fischer 344, males, in feed, site: liver, lesion: several types, types named in the paper, dosed 37 weeks, study length 104 weeks) 60 mg/kg/day; (rat, strain Fischer 344, males, in feed, site: liver, lesion: several types, types named in the paper, dosed 52 weeks, study length 104 weeks) 22.9 mg/kg/day.
Take `NNCCc1ccccc1`: the TD50 is 20.4 mg/kg/day (mouse, strain Swiss albino, females, in drinking water, site: blood vessels, lesion: angiosarcoma, dosed 93 weeks, study length 93 weeks); 14.6 mg/kg/day (mouse, strain Swiss albino, females, in drinking water, site: blood vessels, lesion: several types, types named in the paper, dosed 93 weeks, study length 93 weeks); 23.7 mg/kg/day (mouse, strain Swiss albino, females, in drinking water, site: fat, lesion: angiosarcoma, dosed 93 weeks, study length 93 weeks); 278 mg/kg/day (mouse, strain Swiss albino, females, in drinking water, site: liver, lesion: several types, types named in the paper, dosed 93 weeks, study length 93 weeks); 25.8 mg/kg/day (mouse, strain Swiss albino, females, in drinking water, site: lung, lesion: adenoma, dosed 93 weeks, study length 93 weeks); 123 mg/kg/day (mouse, strain Swiss albino, females, in drinking water, site: lung, lesion: angiosarcoma, dosed 93 weeks, study length 93 weeks). The TD50 was 27.5 mg/kg/day (mouse, strain Swiss albino, females, in drinking water, site: lung, lesion: several types, types named in the paper, dosed 93 weeks, study length 93 weeks); 21.7 mg/kg/day (mouse, strain Swiss albino, females, in drinking water, site: muscle, lesion: angiosarcoma, dosed 93 weeks, study length 93 weeks); 19.9 mg/kg/day (mouse, strain Swiss albino, females, in drinking water, site: subcutaneous tissue, lesion: angiosarcoma, dosed 93 weeks, study length 93 weeks); 30 mg/kg/day (inactive) (mouse, strain Swiss albino, males, in drinking water, site: lung, lesion: adenoma, dosed 99 weeks, study length 99 weeks); 33.1 mg/kg/day (inactive) (mouse, strain Swiss albino, males, in drinking water, site: lung, lesion: several types, types named in the paper, dosed 99 weeks, study length 99 weeks). Further, the carcinogen call (mouse, strain Swiss albino, males, in drinking water, site: liver, lesion: several types, types named in the paper, dosed 99 weeks, study length 99 weeks) is “negative (inactive)”.
For the compound `CCCCN(CCCCO)N=O`, the TD50 (rat, strain F344/DuCrj, males, in drinking water, site: liver, lesion: hyperplastic nodule, dosed 106 weeks, study length 112 weeks) was found to be 0.169 mg/kg/day; the TD50 (rat, strain F344/DuCrj, males, in drinking water, site: urinary bladder, lesion: papilloma, dosed 106 weeks, study length 112 weeks) was 0.447 mg/kg/day; the TD50 (rat, strain F344/DuCrj, males, in drinking water, site: urinary bladder, lesion: transitional-cell carcinoma, dosed 106 weeks, study length 112 weeks) was 0.432 mg/kg/day; the TD50 (rat, strain Fischer 344, males, in drinking water, site: testis, lesion: Leydig-cell tumor, dosed 78 weeks, study length 78 weeks) is 0.386 mg/kg/day; the TD50 (rat, strain Fischer 344, males, in drinking water, site: urinary bladder, lesion: transitional-cell carcinoma, dosed 78 weeks, study length 78 weeks) is 0.175 mg/kg/day; the TD50 (rat, strain Fischer 344, males, in feed, site: liver, lesion: hepatocellular carcinoma, dosed 103 weeks, study length 103 weeks) came to 185 mg/kg/day. The TD50 (rat, strain Fischer 344, males, in feed, site: urinary bladder, lesion: carcinoma, dosed 103 weeks, study length 103 weeks) is 0.549 mg/kg/day; the TD50 (rat, strain Sprague-Dawley, males, by gavage, site: lung, lesion: carcinoma, dosed 39 weeks, study length 74 weeks) amounted to 166 mg/kg/day; the TD50 (rat, strain Sprague-Dawley, males, by gavage, site: urinary bladder, lesion: several types, types named in the paper, dosed 39 weeks, study length 74 weeks) is 1.17 mg/kg/day; the TD50 (rat, strain Sprague-Dawley, males, in drinking water, site: liver, lesion: liver-cell carcinoma, dosed 104 weeks, study length 104 weeks) was found to be 271 mg/kg/day; the TD50 (rat, strain Sprague-Dawley, males, in drinking water, site: urinary bladder, lesion: carcinoma, dosed 104 weeks, study length 104 weeks) was 3.3 mg/kg/day. Where the note is “rat, strain Fischer 344, females, in feed, site: urinary bladder, lesion: carcinoma, dosed 103 weeks, study length 103 weeks”, the carcinogen call is “positive”.
As to `Cc1cc(O)cc(C)c1N(C)C`, the TD50 (mouse, strain B6AKF1, females, oral dosing, site: any site (literature study), lesion: several types, types named in the paper, dosed 76 weeks, study length 76 weeks) was 220 mg/kg/day (inactive); the TD50 (mouse, strain B6AKF1, males, oral dosing, site: any site (literature study), lesion: several types, types named in the paper, dosed 76 weeks, study length 76 weeks) is 1190 mg/kg/day (inactive); the TD50 (mouse, strain B6AKF1, males, oral dosing, site: liver, lesion: hepatoma, dosed 76 weeks, study length 76 weeks) was 207 mg/kg/day (inactive); the TD50 (mouse, strain B6C3F1, females, oral dosing, site: any site (literature study), lesion: several types, types named in the paper, dosed 76 weeks, study length 76 weeks) was 265 mg/kg/day (inactive); the TD50 (mouse, strain B6C3F1, females, oral dosing, site: lung, lesion: adenoma, dosed 76 weeks, study length 76 weeks) is 265 mg/kg/day (inactive); the TD50 (mouse, strain B6C3F1, males, oral dosing, site: any site (literature study), lesion: several types, types named in the paper, dosed 76 weeks, study length 76 weeks) was 34.8 mg/kg/day (inactive). Also, the TD50 was 247 mg/kg/day (inactive) (mouse, strain B6C3F1, males, oral dosing, site: liver, lesion: hepatoma, dosed 76 weeks, study length 76 weeks) and 56.1 mg/kg/day (inactive) (mouse, strain B6C3F1, males, oral dosing, site: lung, lesion: adenoma, dosed 76 weeks, study length 76 weeks). Further, the carcinogen call reads like this: (mouse, strain B6AKF1, females, oral dosing, site: liver, lesion: hepatoma, dosed 76 weeks, study length 76 weeks) “negative (inactive)”; (mouse, strain B6AKF1, females, oral dosing, site: lung, lesion: adenoma, dosed 76 weeks, study length 76 weeks) “negative (inactive)”; (mouse, strain B6AKF1, males, oral dosing, site: lung, lesion: adenoma, dosed 76 weeks, study length 76 weeks) “negative (inactive)”; (mouse, strain B6C3F1, females, oral dosing, site: liver, lesion: hepatoma, dosed 76 weeks, study length 76 weeks) “negative (inactive)”.
For the compound `OCC(O)CO`, the TD50 (rat, strain Long-Evans, both sexes, in feed, site: any site (literature study), lesion: several types, types named in the paper, dosed 105 weeks, study length 105 weeks) was 38300 mg/kg/day (inactive) and 12300 mg/kg/day (inactive).
